Assay results as given in patent publication US20160177259A1, “[…]” (Evonik Degussa GmbH, priority 2014, published 2016).

Tested on: Clostridium ljungdahlii
Experiment: Autotrophic production of ethanol and acetate in carbonate buffer on synthesis gas with varying L-cysteine HCl (Example 1)
Format: cell-based
Protocol: For the production, anaerobic carbonate buffer (adjusted with KOH 1.4 g/L) was used. The only addition to the buffer was L-cysteine HCl at different concentrations.
For identical autotrophic productions, 500 mL septum bottles were filled with 100 mL carbonate buffer and shaken at 150 min^−1 in an open shaking water bath shaker Innova 3100 by New Brunswick Scientific. The reactions were carried out at 37° C. with manual control of the pH. Once the pH dropped below 5.5, KOH was replenished from a stock solution of 140 g/L. In the present experiments the pH in both reactors were checked at the following points in time 50.3 h, 73.3 h and corrected by the addition of each 1.4 g/L KOH manually.
The reactors were inoculated with a synthesis gas mixture of 67% H2 and 33% CO2 and pressure of 0.8 bar applied. To replenish the depleted gas, the gas above the reactors was replaced once a day and again the pressure brought to 0.8 bars.
The reactor was started by seeding autotrophic grown cells at an OD of 0.2. The preculture was carried out continuously in a 1 L bottle with 500 mL complex medium. The complex medium consisting of 1 g/lNH4Cl, 0.1 g/l KCl, 0.2 g/l MgSO4 ×7 H2O, 0.8 g/l NaCl, 0.1 g/l KH2PO4, 20 mg/l CaCl2 ×2 H2O, 20 g/l MES, 1 g/l yeast extract, 0.4 g/L L-Cysteine-HC1, 20 mg/l nitrilotriacetic acid, 10 mg/l MnSO4×H2O, 8 mg/l (NH4)2Fe(SO4)2×6 H2O, 2 mg/l CoCl2×6 H2O, 2 mg/l ZnSO4 33 7 H2O, 0.2 mg/l CuCl 2 33 2 H2O, 0.2 mg/l Na2MoO4×2 H2O, 0.2 mg/l NiCl2×6 H2O, 0.2 mg/l Na2SeO4, 0.2 mg/l Na2WO4×2 H2O, 20 μg/l d-Biotin, 20 μg/l folic acid, 100 μg/l pyridoxine HCl, 50μg/l thiamine-HCl×H2O, 50 μg l of riboflavin, 50 μg/l nicotinic acid, 50 μg/l Ca-pantothenate, 1 μg/l vitamin B12, 50μg/l p-aminobenzoate, 50 μg/l lipoic acid. The culture was then gassed continuously with synthesis gas (67% H2, 33% CO2) at a flow rate of 3 l/h over a filter with pore size 10 microns. The cells were in late log phase growth at an OD of 0.37 and where anaerobically centrifuged (4500 rpm, 4300 g, 20° C., 10 min). The supernatant was discarded and the cell pellet resuspended in 10 ml carbonate buffer. The prepared cells were then used to inoculate the actual tests.
When sampling each 5 ml sample was removed for determination of OD600, pH and the product spectrum. The determination of the product concentration was performed using quantitative 1H-NMR spectroscopy. As an internal quantification standard sodium trimethylsilylpropionate was used (T(M)SP).

[1] = reactor 1, 0.1 g/L L-Cysteine-HCl, 150 min-1, 0.0 h
[2] = reactor 1, 0.1 g/L L-Cysteine-HCl, 150 min-1, 24.5 h
[3] = reactor 1, 0.1 g/L L-Cysteine-HCl, 150 min-1, 50.3 h
[4] = reactor 1, 0.1 g/L L-Cysteine-HCl, 150 min-1, 73.3 h
[5] = reactor 1, 0.1 g/L L-Cysteine-HCl, 150 min-1, 92.3 h
[6] = reactor 2, 0.4 g/L L-Cysteine-HCl, 150 min-1, 0.0 h
[7] = reactor 2, 0.4 g/L L-Cysteine-HCl, 150 min-1, 24.5 h
[8] = reactor 2, 0.4 g/L L-Cysteine-HCl, 150 min-1, 50.3 h
[9] = reactor 2, 0.4 g/L L-Cysteine-HCl, 150 min-1, 73.3 h
[10] = reactor 2, 0.4 g/L L-Cysteine-HCl, 150 min-1, 92.3 h

Cl.N[C@@H](CS)C(=O)O [L-Cysteine-HCl, L-cysteine hydrochloride]
concentrations of ethanol and acetate (0.1 g/L compared with 0.4 g/L L-cysteine-HCl, after 92.3 h): higher
Acetate (NMR) [1]: 13 mg/L
Ethanol (NMR) [1]: 6 mg/L
OD600 [1]: 0.25
Acetate (NMR) [2]: 1418 mg/L
Ethanol (NMR) [2]: 19 mg/L
OD600 [2]: 0.25
Δp [2]: 0.6 bar
Acetate (NMR) [3]: 2556 mg/L
Ethanol (NMR) [3]: 130 mg/L
OD600 [3]: 0.30
Δp [3]: 0.6 bar
OD600 [4]: 0.30
Δp [4]: 0.6 bar
Acetate (NMR) [5]: 6960 mg/L
Ethanol (NMR) [5]: 321 mg/L
OD600 [5]: 0.26
Δp [5]: 0.4 bar
total gas consumption (reactor 1 with 0.1 g/L compared with reactor with 0.4 g/L L-cysteine-HCl, over 92.3 h): higher
Acetate (NMR) [6]: 15 mg/L
Ethanol (NMR) [6]: 8 mg/L
OD600 [6]: 0.24
Acetate (NMR) [7]: 2331 mg/L
Ethanol (NMR) [7]: 27 mg/L
OD600 [7]: 0.23
Δp [7]: 0.6 bar
Acetate (NMR) [8]: 3197 mg/L
Ethanol (NMR) [8]: 128 mg/L
OD600 [8]: 0.26
Δp [8]: 0.5 bar
OD600 [9]: 0.22
Δp [9]: 0.3 bar
Acetate (NMR) [10]: 5067 mg/L
Ethanol (NMR) [10]: 150 mg/L
OD600 [10]: 0.22
Δp [10]: 0.3 bar
